For data set [1] the following is noted: Liquid; for mass density: 293.15 K, 101.33 kPa.
Data set [2] in a line: refractive index (Na D-line) (dimensionless). As to conditions: 293.15 K; 101.33 kPa; Liquid; Standard Abbe refractometry.

Numbers after ± are expanded uncertainties.

As usually defined, the mass density is the mass of a sample divided by its volume. A word on the refractive index: it is the speed of light in vacuum divided by its phase velocity in the sample.

In the case of `CCC(=O)O` [propanoic acid], in data set [1], the mass density worked out at 992.7 ± 0.5 kg/m3 and the Normal boiling temperature amounted to 141.0 ± 0.1 °C. In addition, the refractive index in data set [2] was determined as 1.3811 ± 0.0008.
As for `CCOC(=O)c1ccccc1C(=O)OCC` [diethyl phthalate], in data set [1] (Vibrating tube method), the mass density was 1117.2 ± 0.6 kg/m3. The Normal boiling temperature in data set [1] was 298.02 ± 0.1 °C. In data set [2], the refractive index is on record as 1.5003 ± 0.0008.

These data come from the NIST ThermoML archive (doi:10.1016/j.jct.2005.02.005).
